Measurements taken from patent US11433033B2, “2,4-dinitrophenol formulations and methods using same” (priority 2013, dated 2022).
“Also recorded” adds a separate entry of the source. Read-outs that look alike come from different tables or passages of the source.

How the values were obtained:
[1] = test system: rat model of NAFLD and whole body insulin resistance; test: Continuous low dose intragastric DNP infusion (2 mg/kg per day, 5 days) in high fat fed rats; format: in vivo
Protocol: For the intragastric DNP infusion studies, rats previously fed high fat diet for 2 weeks were placed in a Covance infusion harness attached to a single-axis counter-balanced swivel mount and a stainless steel one-channel swivel (all from Instech Solomon) to protect the catheters and allow the animals free access to the cage. DNP (2 mg/kg per day) or vehicle (10% dimethylsulfoxide/90% saline vehicle) was infused continuously through the […] for 5 days.
Plasma insulin and glucagon were measured by radioimmunoassay. Plasma glucose was measured enzymatically by the YSI Life Sciences 2700 Select Biochemistry Analyzer. Plasma concentrations of twelve inflammatory markers, adiponectin, and FGF-21 were assessed by ELISA (QIAGEN, Life Technologies, and Millipore, respectively). Liver glycogen was measured by amyloglucosidase digestion (Passonneau & Lauderdale, 1974, Anal. Biochem. 60:405-12). Non-esterified fatty acid concentrations were measured by an enzymatic kit (Wako).
(§1) Plasma triglycerides were measured using a Wako reagent. Liver and quadriceps triacylglycerol were extracted using the method of Bligh and Dyer (Bligh & Dyer, 1959, Can. J. Biochem. Physiol. 37:911-7) and quantified spectrophotometrically using a reagent from Diagnostic Chemicals Ltd. Liver and quadriceps DAG and ceramide concentrations were measured by liquid chromatography/mass spectrometry/mass spectrometry (LC/MS/MS) (Yu, et al., 2002, J. Biol. Chem. 277:50230-6), as were acylcarnitine concentrations (An, et al., 2004, Nat. Med. 10:268-74). Very low-density lipoprotein (VLDL) export was measured (Lee, et al., 2011, Hepatology 54:1650-60). Liver acetyl and malonyl CoA concentrations were measured by LC/MS/MS (Hosokawa, et al., 1986, Anal. Biochem. 153:45-9; Roughan, 1994, Biochem. J. 300:355-8).

[2] = in vivo; format: in vivo, Sprague-Dawley rats
Protocol: Rats consumed the concentrations of DNP or ERDNP specified in the text orally, mixed in peanut butter. All rats used for the kinetics studies consumed the entirety of the peanut butter and protonophore within 2 minutes.
DNP concentrations were measured in plasma, liver, kidney, WAT, quadriceps, heart, and brain of Sprague-Dawley rats by LC/MS/MS (Perry, et al., 2013, Cell. Metab. 18:740-8). Rats treated with DNP were sacrificed 1 hour after treatment with DNP, and those treated with ERDNP were sacrificed 8 hours after treatment, as these were the times determined in the plasma DNP studies to represent the peak plasma DNP concentrations (FIGS. 21A-21B). The minimal detection limit of the method was determined to be […], as this was the minimum concentration of solutions of known quantities of DNP in DMSO measured by the method with less than 20% error in each of three replicates.
LC/MS/MS method development and analysis were performed on the Applied Biosystems 4000 QTRAP (Foster City, Calif.), equipped with a Shimadzu ultra fast liquid chromatography (UFLC) system. Electrospray ionization (ESI) source with negative-ion detection was shown as the most sensitive for both qualitative and quantitative analysis of DNP. The quantitative analysis of DNP was monitored in MRM mode with an ion pair (183.0/109.0). The preferred parameters are: curtain gas 25; collision gas 9, probe temperature 480° C.; […]; ion source gas 2 25; declustering potential (DP) −45 V; entrance potential (EP) −10 V; collision energy (CE) −35 V and collision cell exit potential −12 V.
Plasma samples (10-100 μL) were mixed with 2.0 ml pre-chilled chloroform/methanol (v/v: 2/1) containing 0.01% BHT in 5 ml glass vials, to which was added 250 μl water together with 10 nmol DNP-D3 and 10 nmol DNPME-D6 as the internal standards. The mixtures were vortexed for 10 seconds before centrifugation at 4000 rpm for 10 min. The bottom organic layer was carefully collected and dried with a steady stream of nitrogen gas. The residual was reconstituted in 200 μl methanol for LC/MS/MS analysis for DNP and/or DNPME metabolites.
Frozen tissue samples (˜100 mg) were weighed and suspended in 2 ml microcentrifuge tubes with 1.6 ml pre-chilled chloroform/methanol (v/v: 2/1) containing 0.01% BHT and one metal bead, and then added 10 nmol DNP-d3 (Cambridge Isotopes, Andover, Mass.) as the internal standards. The tissue samples were disrupted with Qiagen TissueLyser at 30 Hz for 15 min, and then transferred into 5 ml glass vials, followed by addition of 0.5 ml chloroform and 250 μl water into each samples. The samples were centrifuged at 4000 rpm for 10 min after vortexed for 10 seconds. The bottom organic layer was collected and dried with a gentle flow of nitrogen. The residual was reconstituted in 200 μl methanol for LC/MS/MS analysis of DNP.

[3] = test system: rats; test: Toxicity studies: rectal temperature, liver enzymes, BUN, creatinine, histology; format: in vivo, rat
Protocol: (§2) Alanine aminotransferase, aspartate aminotransferase, and blood urea nitrogen were measured using the COBAS Mira Plus, and creatinine by LC/MS/MS. Body temperature was measured using a rectal probe (Physitemp Instruments). Histology slides were stained with hematoxylin & eosin, Sirius Red, and TUNEL stains.
Liver and kidney samples were prepared and stained with hematoxylin & eosin by the Yale Research Histology core, and analyzed as described (Kleiner et al., 2005, Hepatology 41:1313-1321).

[4] = test system: two-week high fat fed rats; format: in vivo, rat
Protocol: ERDNP was formulated by Emerson Resources Inc. (Malvern, Pa.) with sustained-release ethylcellulose coating. Rats used for the NAFLD reversal studies were fed high fat diet for 2 weeks, at the end of which they were treated for three days with peanut butter to acclimate them to this food. They were then treated daily with ERDNP mixed in peanut butter, or peanut butter vehicle, at the doses specified in the text daily for 5 days. Zucker Diabetic Fatty rats were treated with ERDNP (1 mg/kg) in peanut butter or peanut butter vehicle daily for 14 days. Blood glucose was measured by glucometer (Abbott) from the tail vein every three days.
as §2, §1

[5] = test system: high fat fed rats; test: Hepatic fluxes (VTCA, VPC, Vfa, VPDH) by [3-13C] lactate infusion, NMR-LC/MS/MS; conditions: rat, in vivo
Protocol: To measure total glutamate enrichment from livers of rats infused with [3-^13C] lactate, ˜100 mg frozen liver were homogenized in 400 μL ice-cold 50% acetonitrile. The samples were centrifuged at 10,000 g for 10 min, and the supernatant was isolated. After overnight storage at 4° C., the samples were centrifuged at 10,000 g for 10 min through a Nanosep 100 k Omega filter (Pall Life Sciences). The flow-through was separated on a hypercarb column (Thermo Scientific; 4.6×100 mm; 5 μm particle size) before ionization for multiple reaction monitoring analysis by LC/MS/MS (Applied Biosystems MDS SCIEX, 4000 Q-TRAP). […]
Spectra were acquired with relaxation time=1 s, dummy scans=32, and number of scans=8,192 per block×3 blocks. Correction factors for differences in T relaxation times were determined from fully relaxed spectra of natural abundance glutamate and glucose solutions. […]
Total glucose enrichment in the NMR extract was determined by derivatizing 20 μL of the NMR extract with 100 μL methanol, then drying overnight in a Speed-Vac. […]
To measure positional alanine enrichment from [3-^13C] lactate infused rat livers, liver samples were extracted for NMR as described above, and the enrichment at [2-^13C] and [3-^13C] alanine was measured by proton-observed, carbon-edited NMR as we have reported (Alves et al., 2011, Hepatology 53:1175-1181). […]

[6] = in vivo; format: in vivo, Sprague-Dawley rats; conditions: for concentration at 5 days: Sprague-Dawley, rat, in vivo, 2 mg/kg per day
[7] = intragastric DNP 2 mg/kg per day, 5 days

O=[N+]([O-])c1ccc(O)c([N+](=O)[O-])c1 [DNP, 2,4-dinitrophenol]
liver enzymes, blood urea nitrogen (BUN) or creatinine ([1]; chronic intragastric DNP infusion 2 mg/kg per day): no observed changes
fasting plasma glucose and insulin concentrations [1, 7]: lower
reductions in liver and muscle TAG and diacylglycerol (DAG) content [1, 7]: > 50%
reductions in plasma triglycerides [1, 7]: > 80%
tissue ceramide content [1, 7]: no changes
tissue DNP concentrations after chronic treatment compared with one (or five) daily doses ([2]; 1 mg/kg per day, rats): no differences; also recorded: did not differ significantly
maximum plasma concentration of DNP, fold higher with DNP treatment than with ERDNP ([2]; 25 mg/kg DNP versus 1 mg/kg ERDNP): 30 fold
concentration at 8 hours ([2]; Sprague-Dawley, rat, in vivo, 1 mg/kg, 8 hours after the last of five daily 1 mg/kg doses (FIG. 21J), read-out: DNP concentrations in all tissues following chronic treatment): < 10000 nM
half-life ([2]; Sprague-Dawley, rat, in vivo, 25 mg/kg, plasma DNP, rats): 8 to 12 h
peak DNP liver concentration ([2]; dose of DNP 5 mg/kg, rat): ~60 µM
peak plasma DNP concentration ([2]; dose of DNP 5 mg/kg, rat): ~120 µM
area under the plasma DNP concentration curve ([2]; oral, rats, 1 mg/kg ERDNP versus 25 mg/kg DNP): 4,311±555
time of maximum concentration of DNP ([2]; plasma, rats, 1 mg/kg ERDNP versus 25 mg/kg DNP): one
toxic plasma threshold of DNP ([3]; plasma concentration): ~400 µM
relation between plasma DNP concentration and body temperature ([3]; rats treated with 10-50 mg/kg DNP): strong correlation
daily doses that raised ALT ([4]; daily for five days): above 2 mg/kg
daily doses that raised AST concentrations ([4]; daily for five days): above 1 mg/kg
effect of the highest dose on BUN ([4]; daily for five days): raised BUN
lowest effective dose to decrease liver triglyceride ([4]; daily for five days, two-week high fat fed rats): 5 mg/kg
ratio of toxic to therapeutic dose ([4]; rats): 0.4
toxic dose ([4]; rats): 2 mg/kg
concentrations of DNP found to promote subtle increases in hepatic mitochondrial uncoupling [5]: 1 to 5 µM
concentration at 5 days ([6]; intragastric DNP infusion 2 mg/kg per day, 5 days, rats, read-out: steady state liver DNP concentration): ~1000 nM
concentration at 5 days ([6]; intragastric DNP infusion 2 mg/kg per day, 5 days, rats, read-out: steady state plasma DNP concentration): ~3000 nM
sustained plasma and tissue concentrations of DNP that reversed hepatic steatosis and insulin resistance ([6]; continuous intragastric DNP infusion, rat model of NAFLD): 1-3 VM
plasma DNP concentrations, fold lower than the threshold where DNP toxicity is first detected ([6]; continuous low dose intragastric infusion of DNP): ~100 fold
sustained plasma and liver concentrations of DNP that reversed fatty liver and whole body insulin resistance ([6]; continuous low dose intragastric infusion, high fat rat model of NAFLD): 1 to 3 µM
DNP concentration in skeletal muscle ([6]; intragastric DNP infusion 2 mg/kg per day, 5 days, rats): negligible
